Earlier results in patent publication US6670393B2, “Carbamate-based cationic lipids” (Promega Biosciences, Inc., priority 1995, dated 2003).

Tested on: cells

## CC(C)CCC[C@@H](C)[C@H]1CC[C@H]2[C@@H]3CC=C4C[C@@H](OC(=O)NCCN(C)C)CC[C@]4(C)[C@H]3CC[C@]12C [DC-Chol]
  toxicity to cells (reported): lower toxicity
  transfection (reported): more efficient transfection
